Converted amounts (≈) assume the structure as drawn. Like-named read-outs stand apart in the source and are kept apart here.
Legend:
BC-1 (breast) = experiment: Cytotoxicity against cultured human cancer cells (SRB); assay type: cell-based; conditions: Homo sapiens, 72 h, read-out: ED50 BC-1
Description: (§1) The plates were incubated for three days. […] Dose response studies were performed to generate ED50 values.

COL-2 (colon) = experiment: as above; assay type: cell-based; conditions: Homo sapiens, Col2, 72 h, read-out: ED50 COL-2
Description: as §1

HT-1080 (sarcoma) = experiment: as above; assay type: cell-based; conditions: Homo sapiens, HT-1080, 72 h, three days incubation, read-out: ED50 HT-1080
Description: as §1

LNCaP (prostate) = experiment: as above; assay type: cell-based; conditions: Homo sapiens, LNCaP, 72 h, read-out: ED50 LNCaP
Description: as §1

ZR-75-1 (breast) = experiment: as above; assay type: cell-based; conditions: Homo sapiens, ZR-75-1, 72 h, read-out: ED50 ZR 75-1
Description: as §1

MEL-2 (melanoma) = experiment: Cytotoxicity against cultured human melanoma cells (SRB); assay type: cell-based; conditions: for IC50: Homo sapiens, MEL2, 72 h, three days incubation, SRB, Table 1 and text, read-out: ED50 MEL-2; for ED50 (Std. Dev.) MEL-2: derivatives, Tables 2-6
Description: as §1

[1] = tested on: human melanoma and nonmelanoma cancer cell lines; experiment: Cytotoxicity profile across the panel of human cancer cell lines; conditions: Table 1 panel
Description: (§2) In the following Table 1, the extracted betulinic acid and the other pure compounds were tested for cycotoxity against the following cultured human cell lines: A431 (squamous cells), BC-1 (breast), COL-2 (colon), HT-1080 (sarcoma), KB (human oral epidermoid carcinoma), LNCaP (prostate), LU-1 (lung), MEL-2 (melanoma), U373 (glioma) and ZR-75-1 (breast).
(§3) Cytotoxicity of the crude extracts and purified compounds was determined in a number of cultured human cancer cell lines. The cells were cultured in appropriate media and under standard conditions. To maintain logarithmic growth, the media were changed 24 hours prior to cytotoxic assays. On the day of the assay, the cells were harvested by trypsinization, counted, diluted in media, and added to 96-well plates containing test compounds dissolved in DMSO; the final DMSO concentration was 0.05%.
(§4) The plates were incubated for three days. Following the incubation period, the cells were fixed and stained with sulforhodamine B (SRB) dye. The bound dye was liberated with Tris base, and the OD515 was measured on an ELISA reader. The growth of the betulinic acid-treated cells was determined by the OD515 values, and the growth was compared to the OD515 values of DMSO-treated control cells. Dose response studies were performed to generate ED50 values.
(§5) The biological evaluation of the derivatives focused on the activity against human melanoma cell lines. In particular, the following betulinic acid derivatives were prepared and tested for cytotoxicity profile against human melanoma cell lines and against a number of selected nonmelanoma cell lines.

[2] = tested on: KB (human oral epidermoid carcinoma); experiment: Cytotoxicity against cultured human cancer cells (SRB); assay type: cell-based; conditions: for ED50 (Std. Dev.) KB: derivatives, Tables 2-6; for IC50: Homo sapiens, 72 h, three days incubation, SRB, Table 1, read-out: ED50 KB
Description: as §1

LOX melanoma cell line = experiment: Cytotoxicity of betulinic acid derivatives; assay type: cell-based, human; conditions: Tables 2-6
Description: as §1

[3] = tested on: MALE-3M melanoma cell line; experiment: Cytotoxicity of betulinic acid derivatives; assay type: cell-based, human; conditions: Tables 2-6
Description: as §1

MEL-6 melanoma cell line = experiment: Cytotoxicity of betulinic acid derivatives; assay type: cell-based, human; conditions: Tables 2-6
Description: as §1

MEL-8 melanoma cell line = experiment: Cytotoxicity of betulinic acid derivatives; assay type: cell-based, human; conditions: Tables 2-6
Description: as §1

[4] = tested on: human melanoma and nonmelanoma cancer cell lines
Description: as §2, §3, §4, §5

A431 (squamous cells) = experiment: Cytotoxicity against cultured human cancer cells (SRB); assay type: cell-based; conditions: Homo sapiens, A-431, 72 h, read-out: ED50 A431
Description: as §1

LU-1 (lung) = experiment: as above; assay type: cell-based; conditions: Homo sapiens, 72 h, three days incubation, read-out: ED50 LU-1
Description: as §1

U373 (glioma) = experiment: as above; assay type: cell-based; conditions: Homo sapiens, U373 MG, 72 h, read-out: ED50 U373
Description: as §1

Row | SMILES | ED50 (Std. Dev.) KB [2] | ED50 (Std. Dev.) MEL-2 (MEL-2 (melanoma)) | ED50 (Std. Dev.) LOX (LOX melanoma cell line) | ED50 (Std. Dev.) MALE-3M [3] | ED50 (Std. Dev.) MEL-6 (MEL-6 melanoma cell line) | ED50 (Std. Dev.) MEL-8 (MEL-8 melanoma cell line) | cytotoxicity and selectivity compared with betulinic acid or the corresponding analog [4] | further results
1 | CC[C@@]1(O)C(=O)OCc2c1cc1n(c2=O)Cc2cc3ccccc3nc2-1 [Camptothecin] |  |  |  |  |  |  |  | IC50 (BC-1 (breast); three days incubation, SRB): 0.07 µg/mL (≈ 0.201 µM); IC50 (COL-2 (colon); three days incubation, SRB): 0.005 µg/mL (≈ 0.0144 µM); IC50 (HT-1080 (sarcoma)): 0.01 µg/mL (≈ 0.0287 µM); IC50 (LNCaP (prostate); three days incubation, SRB): 0.006 µg/mL (≈ 0.0172 µM); IC50 (ZR-75-1 (breast); three days incubation, SRB): 0.001 µg/mL (≈ 0.00287 µM); IC50 (MEL-2 (melanoma)): 0.02 µg/mL (≈ 0.0574 µM); cytotoxic activity profile, cell-type selectivity [1]: relatively intense, nonselective cytotoxic activity
2 | C=C(C)C1CCC2(C=O)CCC3(C)C(CCC4C5(C)CCC(=O)C(C)(C)C5CCC43C)C12 (stereo not drawn) [Compound 1] | 12.9 µg/mL (≈ 29.4 µM) | 7.4 (2.4) μg/mL | 18.5 µg/mL (≈ 42.2 µM) | >20 μg/mL | >20 µg/mL | 3.2 (1.2) μg/mL |  | 
3 | C=C(C)C1CCC2(C=NOC)CCC3(C)C(CCC4C5(C)CCC(=NOC)C(C)(C)C5CCC43C)C12 (stereo not drawn) [Compound 3] | 20 µg/mL (≈ 40.3 µM) | >20 µg/mL | >20 µg/mL | >20 μg/mL | >20 µg/mL | >20 µg/mL |  | 
4 | C=C(C)C1CCC2(C=NO)CCC3(C)C(CCC4C5(C)CCC(=NO)C(C)(C)C5CCC43C)C12 (stereo not drawn) [Compound 4] | 3.3 µg/mL (≈ 7.04 µM) | 2.2 (0.7) μg/mL | 4.1 µg/mL (≈ 8.75 µM) | 17.5 μg/mL | 11.9 (2.7) μg/mL | 1.4 (0.6) μg/mL | improved the cytotoxicity profile, although selectivity was lost | 
5 | CON=C1CCC2(C)C(CCC3(C)C2CCC2C4C(C(C)C)CCC4(C(=O)O)CCC23C)C1(C)C (stereo not drawn) [Compound 5] |  | >20 µg/mL |  | >20 μg/mL | >20 µg/mL | >20 µg/mL | less active | 
6 | CC(C)[C@@H]1CC[C@]2(C(=O)O)CC[C@]3(C)[C@H](CC[C@@H]4[C@@]5(C)CCC(=O)C(C)(C)[C@@H]5CC[C@]43C)[C@@H]12 [Compound 6, Dihydrobetulonic acid] |  | 0.7 (0.6) μg/mL |  | 20 μg/mL | 10.8 (2.6) μg/mL | 0.9 (0.4) μg/mL | comparable biological activity | 
7 | CC(C)C1CCC2(C(=O)O)CCC3(C)C(CCC4C5(C)CCC(=NO)C(C)(C)C5CCC43C)C12 (stereo not drawn) [Compound 7] |  | 2.2 (0.3) μg/mL |  | 13.9 μg/mL | 13.1 (1.1) μg/mL | 1.6 (1.1) μg/mL | comparable biological activity | 
8 | C=C(C)[C@@H]1CC[C@]2(C(=O)O)CC[C@]3(C)[C@H](CC[C@@H]4[C@@]5(C)CCC(=O)C(C)(C)[C@@H]5CC[C@]43C)[C@@H]12 [Compound 8, Betulonic acid] | 2.5 µg/mL (≈ 5.5 µM) | 0.9 (0.8) μg/mL | 6.9 µg/mL (≈ 15.2 µM) | 20 μg/mL | 15.3 (3.4) μg/mL | 0.4 (0.1) μg/mL | decrease in selective cytotoxicity | 
9 | CC(C)[C@@H]1CC[C@]2(C(=O)O)CC[C@]3(C)C(CCC4[C@@]5(C)CC[C@H](O)C(C)(C)C5CC[C@]43C)C12 (stereo partly drawn) [Compound 11, Dihydrobetulinic acid] | >20 µg/mL | 5.8 µg/mL (≈ 12.6 µM) | >20 µg/mL |  |  |  | less active | 
10 | C=C(C)[C@@H]1CC[C@]2(CO)CC[C@]3(C)[C@H](CC[C@@H]4[C@@]5(C)CC[C@H](O)C(C)(C)[C@@H]5CC[C@]43C)[C@@H]12 [Compound 12, lup-20(29)-ene-3β,28-diol] | >20 µg/mL | >20 µg/mL | >20 µg/mL |  |  |  |  | 
11 | C=C(C)C1CCC2(C(=O)O)CCC3(C)C(CCC4C5(C)CCC(=NOC)C(C)(C)C5CCC43C)C12 (stereo not drawn) [Compound 13] | 4.3 µg/mL (≈ 8.89 µM) | 8.3 µg/mL (≈ 17.2 µM) | >20 µg/mL |  |  |  | decrease in selective cytotoxicity | 
12 | C=C(C)[C@@H]1CC[C@]2(C(=O)OC)CC[C@]3(C)[C@H](CC[C@@H]4[C@@]5(C)CC[C@H](O)C(C)(C)[C@@H]5CC[C@]43C)[C@@H]12 [Compound 14, Methyl betulinate] | 11.8 µg/mL (≈ 25.1 µM) | 8.3 µg/mL (≈ 17.6 µM) | 12.5 µg/mL (≈ 26.6 µM) |  |  |  |  | 
13 | C=C(C)[C@@H]1CC[C@]2(C)CC[C@]3(C)[C@H](CC[C@@H]4[C@@]5(C)CC[C@H](O)C(C)(C)[C@@H]5CC[C@]43C)[C@@H]12 [Compound 15, Lupeol] | >20 µg/mL | 17.6 µg/mL (≈ 41.2 µM) | 15.6 µg/mL (≈ 36.6 µM) |  |  |  |  | 
14 | C=C(C)[C@@H]1CC[C@]2(C)CC[C@]3(C)[C@H](CC[C@@H]4[C@@]5(C)CC[C@H](OC(=O)c6ccccc6)C(C)(C)[C@@H]5CC[C@]43C)[C@@H]12 [Compound 16, Lupeol benzoate] | >20 µg/mL | >20 µg/mL | >20 µg/mL |  |  |  |  | 
15 | COC(=O)C[C@](O)(CCCC(C)(C)O)C(=O)O[C@@H]1C(OC)=C[C@]23CCCN2CCc2cc4c(cc2[C@H]13)OCO4 [Homoharringtonine] |  |  |  |  |  |  |  | IC50 (A431 (squamous cells); three days incubation, SRB): 0.02 µg/mL (≈ 0.0367 µM); IC50 (BC-1 (breast); three days incubation, SRB): 0.03 µg/mL (≈ 0.055 µM); IC50 (COL-2 (colon); three days incubation, SRB): 0.1 µg/mL (≈ 0.183 µM); IC50 (HT-1080 (sarcoma)): 0.01 µg/mL (≈ 0.0183 µM); IC50 (LNCaP (prostate); three days incubation, SRB): 0.03 µg/mL (≈ 0.055 µM); IC50 (LU-1 (lung)): 0.03 µg/mL (≈ 0.055 µM); IC50 (U373 (glioma); three days incubation, SRB): 0.2 µg/mL (≈ 0.367 µM); IC50 (ZR-75-1 (breast); three days incubation, SRB): 0.06 µg/mL (≈ 0.11 µM); IC50 (MEL-2 (melanoma)): 0.04 µg/mL (≈ 0.0733 µM); cytotoxic activity profile, cell-type selectivity [1]: relatively intense, nonselective cytotoxic activity
16 | COc1cc([C@@H]2c3cc4c(cc3[C@H](O)[C@H]3COC(=O)[C@H]23)OCO4)cc(OC)c1OC [Podophyllotoxin] |  |  |  |  |  |  |  | IC50 (A431 (squamous cells)): 0.03 µg/mL (≈ 0.0724 µM); IC50 (BC-1 (breast)): 0.03 µg/mL (≈ 0.0724 µM); IC50 (COL-2 (colon)): 0.005 µg/mL (≈ 0.0121 µM); IC50 [2]: 0.08 µg/mL (≈ 0.193 µM); IC50 (LNCaP (prostate)): 0.04 µg/mL (≈ 0.0965 µM); IC50 (U373 (glioma)): 0.004 µg/mL (≈ 0.00965 µM); IC50 (ZR-75-1 (breast)): 0.4 µg/mL (≈ 0.965 µM); IC50 (MEL-2 (melanoma)): 0.003 µg/mL (≈ 0.00724 µM); cytotoxic activity profile, cell-type selectivity [1]: relatively intense, nonselective cytotoxic activity
17 | CC(=O)O[C@H]1C(=O)[C@@]2(C)[C@H]([C@H](OC(=O)c3ccccc3)[C@]3(O)C[C@H](OC(=O)[C@H](O)[C@@H](NC(=O)c4ccccc4)c4ccccc4)C(C)=C1C3(C)C)[C@]1(OC(C)=O)CO[C@@H]1C[C@@H]2O [Taxol, paclitaxel] |  |  |  |  |  |  |  | IC50 (BC-1 (breast); three days incubation, SRB): 0.02 µg/mL (≈ 0.0234 µM); IC50 (COL-2 (colon); three days incubation, SRB): 0.02 µg/mL (≈ 0.0234 µM); IC50 [2]: 0.02 µg/mL (≈ 0.0234 µM); IC50 (LNCaP (prostate); three days incubation, SRB): 0.02 µg/mL (≈ 0.0234 µM); IC50 (U373 (glioma); three days incubation, SRB): 0.008 µg/mL (≈ 0.00937 µM); IC50 (ZR-75-1 (breast); three days incubation, SRB): 0.02 µg/mL (≈ 0.0234 µM); IC50 (MEL-2 (melanoma)): 0.06 µg/mL (≈ 0.0703 µM); cytotoxic activity profile, cell-type selectivity [1]: relatively intense, nonselective cytotoxic activity
18 | CC[C@]1(O)C[C@H]2CN(CCc3c([nH]c4ccccc34)[C@@](C(=O)OC)(c3cc4c(cc3OC)N(C=O)[C@H]3[C@@](O)(C(=O)OC)[C@H](OC(C)=O)[C@]5(CC)C=CCN6CC[C@]43[C@@H]65)C2)C1 [Vincristine] |  |  |  |  |  |  |  | IC50 (A431 (squamous cells); three days incubation, SRB): 0.01 µg/mL (≈ 0.0121 µM); IC50 (BC-1 (breast); three days incubation, SRB): 0.01 µg/mL (≈ 0.0121 µM); IC50 (COL-2 (colon); three days incubation, SRB): 0.02 µg/mL (≈ 0.0242 µM); IC50 (HT-1080 (sarcoma)): 0.02 µg/mL (≈ 0.0242 µM); IC50 (LNCaP (prostate); three days incubation, SRB): 0.1 µg/mL (≈ 0.121 µM); IC50 (LU-1 (lung)): 0.05 µg/mL (≈ 0.0606 µM); IC50 (U373 (glioma); three days incubation, SRB): 0.06 µg/mL (≈ 0.0727 µM); IC50 (ZR-75-1 (breast); three days incubation, SRB): 0.4 µg/mL (≈ 0.485 µM); IC50 (MEL-2 (melanoma)): 0.02 µg/mL (≈ 0.0242 µM); cytotoxic activity profile, cell-type selectivity [1]: relatively intense, nonselective cytotoxic activity
